Read-outs that look alike come from different tables or passages of the source.
Tests used:
[1] = target: T1, human glucocorticoid receptor protein (GR) (Homo sapiens, UniProt P04150); experiment: Glucocorticoid receptor binding assay ([3H]dexamethasone competition, GR lysate)
T1 construct: made in house; host or cells: Spodoptera frugiperda Sf21 insect cells (baculovirus)
T1 sequence (P04150 1-777): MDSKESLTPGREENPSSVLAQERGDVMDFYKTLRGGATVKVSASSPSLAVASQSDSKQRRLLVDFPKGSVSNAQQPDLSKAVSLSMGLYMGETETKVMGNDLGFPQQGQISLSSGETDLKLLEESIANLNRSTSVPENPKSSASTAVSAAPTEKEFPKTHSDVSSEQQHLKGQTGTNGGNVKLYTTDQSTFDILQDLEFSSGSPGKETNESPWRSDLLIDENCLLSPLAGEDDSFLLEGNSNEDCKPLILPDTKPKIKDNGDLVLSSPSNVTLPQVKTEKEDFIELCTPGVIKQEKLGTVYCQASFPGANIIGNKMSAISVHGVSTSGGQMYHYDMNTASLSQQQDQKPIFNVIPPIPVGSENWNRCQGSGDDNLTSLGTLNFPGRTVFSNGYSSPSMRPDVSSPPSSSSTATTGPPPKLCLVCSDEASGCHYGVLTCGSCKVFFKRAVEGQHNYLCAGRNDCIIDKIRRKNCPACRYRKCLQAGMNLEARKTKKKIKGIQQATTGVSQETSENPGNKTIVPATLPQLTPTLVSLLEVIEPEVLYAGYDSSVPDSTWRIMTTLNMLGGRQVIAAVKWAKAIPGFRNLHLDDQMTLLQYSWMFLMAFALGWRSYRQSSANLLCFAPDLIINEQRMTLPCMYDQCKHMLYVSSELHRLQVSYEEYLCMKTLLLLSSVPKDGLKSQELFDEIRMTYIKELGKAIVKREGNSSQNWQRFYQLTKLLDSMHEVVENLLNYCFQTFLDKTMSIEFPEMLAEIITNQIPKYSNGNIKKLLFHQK
Experimental: A baculovirus expression plasmid containing cDNA encoding the human glucocorticoid receptor protein (GR) was prepared using standard techniques. […] That expression plasmid was co-transfected together with wild type Autographa californica multiple nuclear polyhedrosis virus DNA into Spodopter frugiperda-21 (Sf-21) cells to generate recombinant virus containing GR cDNA. See e.g., O'Reilly, D. R., Miller, L. K., Luckow, V. A., Regulation of expression of a baculovirus ecdysteroid UDP glucosyltransferase gene. […] That recombinant virus containing GR cDNA was collected.
A suspension culture of uninfected Sf21 cells was grown to a density of 1.2×10^6 cells/ml and then infected with the recombinant virus containing GR cDNA at a multiplicity of infection of 2. Those infected Sf21 cells were incubated for 48 hours and then collected by centrifugation at 1000×g for 10 minutes at 4° C. The resulting cell pellets were resuspended in lysis buffer (50 mM Potassium Phosphate buffer, pH 7.0, 10 mM Monothioglycerol, 5 mM DTT, 20 mM Sodium Molybdate, 1 mM PMSF, 1 μg/mL aprotinin, and 10 μg/mL leupeptin) and incubated for 15 minutes on ice. Those resuspended cell pellets were homogenized using a Dounce homogenizer and a B pestle. A volume of 2 M KCl was added to the homogenized cell pellets to a final concentration of 0.4 M. The resulting GR lysates were centrifuged at 100,000×g for 60 min at 4° C. and stored for use in binding assays.
Binding assay samples were prepared in separate mini-tubes in a 96-well format at 4° C. Each binding assay sample was prepared in a volume of 250 μL of Assay Buffer (10% glycerol, 25 mM sodium phosphate, 10 mM potassium fluoride, 10 mM sodium molybdate, 0.25 mM CHAPS, 2 mM DTT and 1 mM EDTA, (adjusted to pH 7.5)) containing 50 μg of GR lysate; 2-4 nM of [^3H]dexamethasone at 84 Ci/mmol; and either a reference compound or a test compound. […] Each reference compound and test compound was assayed at varying concentrations, ranging from 0 to 10^−5 M. Each concentration of each reference compound and each test compound was assayed in triplicate. The assay samples were incubated for 16 hours at 4° C.
The assay samples were then centrifuged and the supernatants were discarded. The resulting pellets were washed twice with assay buffer lacking DTT. Radioactivity in counts per minute (CPM) of each washed pellet was determined by liquid scintillation counter (MicroBeta™, Wallach).
Specific binding for a particular sample was calculated using the equation: (Sample CPM)−(Average Non-specific CPM)
Average Non-specific CPM was defined as the amount of radioactivity from samples containing an excess (i.e. 1000 nM) of unlabeled dexamethasone. […] Ki values were determined using the Cheng-Prusoff equation using a previously determined Kd value for dexamethasone: Ki=IC50/(1+[L]/Kd)
[L]=concentration of labeled dexamethasone
Kd=dissociation constant of labeled dexamethasone

[2] = competition with 2-4 nM [3H]dexamethasone, 16 hours at 4° C., Cheng-Prusoff, read-out: Ki

| SMILES | Ki [1, 2] [nM] | further results |
| --- | --- | --- |
| COc1c(O)ccc2c1-c1ccc3c(c1/C(=C/c1sccc1C(C)=O)O2)C(C)=CC(C)(C)N3 |  | melting point: 222 to 224 °C |
| COc1c(O)ccc2c1-c1ccc3c(c1/C(=C/c1ccccc1CO)O2)C(C)=CC(C)(C)N3 [Compound 159, (Z)-5-(2′-Hydroxymethylbenzylidene)1,2-dihydro-9-hydroxy-10-methoxy-2,2,4-trimethyl-5H-chromeno[3,4-f]quinoline] | 1 to 2 |  |
| C=Cc1ccc(/C=C2\Oc3ccc(O)c(OC)c3-c3ccc4c(c32)C(C)=CC(C)(C)N4)cc1 [Compound 63, (Z)-5-(4′-vinylbenzylidene)-1,2-dihydro-9-hydroxy-10-methoxy-2,2,4-trimethyl-5H-chromeno[3,4-f]quinoline] | 1 to 2 |  |
| COc1c(O)ccc2c1-c1ccc3c(c1/C(=C/c1ccc4c(c1)OCO4)O2)C(C)=CC(C)(C)N3 [Compound 67, (Z)-5-(3′,4′-methylenedioxybenzylidene)-1,2-dihydro-9-hydroxy-10-methoxy-2,2,4-trimethyl-5H-chromeno[3,4-f]quinoline] | < 1 |  |
| COc1c(O)ccc2c1-c1ccc3c(c1/C(=C/c1ccc(C(=O)N4CCCC4)s1)O2)C(C)=CC(C)(C)N3 [Compound 143, (Z)-5-(2′-(5′-(pyrrolidinocarbonyl)thienylmethylidene))-1,2-dihydro-9-hydroxy-10-methoxy-2,2,4-trimethyl-5H-chromeno[3,4-f]quinoline] | 1 to 2 |  |
| COCc1ccsc1/C=C1\Oc2ccc(O)c(OC)c2-c2ccc3c(c21)C(C)=CC(C)(C)N3 [Compound 193, (Z)-5-(2′-(3′-Methoxymethylthienylmethylidene))1,2-dihydro-9-hydroxy-10-methoxy-2,2,4-trimethyl-5H-chromeno[3,4-f]quinoline] | 1 to 2 |  |
| C=CCC(O)c1ccsc1C=C1Oc2ccc(O)c(OC)c2-c2ccc3c(c21)C(C)=CC(C)(C)N3 (single isomer, unassigned; (-)) [Compound 201, (−)-(Z)-5-(2′-(3′-(1″-Hydroxybut-3″-enyl)thienylmethylidene))1,2-dihydro-9-hydroxy-10-methoxy-2,2,4-trimethyl-5H-chromeno[3,4-f]quinoline] | 1 to 2 |  |
| CCN(C)C(=O)c1ccsc1/C=C1\Oc2ccc(O)c(OC)c2-c2ccc3c(c21)C(C)=CC(C)(C)N3 [Compound 134, (Z)-5-(2′-(3′-(ethylmethylaminocarbonyl)thienylmethylidene))-1,2-dihydro-9-hydroxy-10-methoxy-2,2,4-trimethyl-5H-chromeno[3,4-f]quinoline] | < 1 |  |
| COc1c(O)ccc2c1-c1ccc3c(c1/C(=C/c1oc(C)cc1C(=O)N(C)C)O2)C(C)=CC(C)(C)N3 [Compound 146, (Z)-5-(2′-(3′-dimethylaminocarbonyl-5H-methylfuranylmethylidene))-1,2-dihydro-9-hydroxy-10-methoxy-2,2,4-trimethyl-5H-chromeno[3,4-f]quinoline] |  | Ki [1]: > 3 nM |
| COc1c(O)ccc2c1-c1ccc3c(c1/C(=C/c1sccc1C(=O)N1CCC(=O)CC1)O2)C(C)=CC(C)(C)N3 [Compound 252, (Z)-5-(2′-(3′-(4″-Oxo-piperidinecarbonyl)thienylmethylidene))1,2-dihydro-9-hydroxy-10-methoxy-2,2,4-trimethyl-5H-chromeno[3,4-f]quinoline] |  | Ki [1]: 1 to 2 nM |
| C=CCO/N=C(/C)c1ccsc1/C=C1\Oc2ccc(O)c(OC)c2-c2ccc3c(c21)C(C)=CC(C)(C)N3 [Compound 179, (Z)-5-(2′-(3′-((Z)-1″-Allyloxyiminoethyl)thienylmethylidene))1,2-dihydro-9-hydroxy-10-methoxy-2,2,4-trimethyl-5H-chromeno[3,4-f]quinoline] | 1 to 2 |  |
| CCNC(=O)c1ccsc1/C=C1\Oc2ccc(O)c(OC)c2-c2ccc3c(c21)C(C)=CC(C)(C)N3 [Compound 249, (Z)-5-(2′-(3′-Ethylcarbamoylthienylmethylidene))1,2-dihydro-9-hydroxy-10-methoxy-2,2,4-trimethyl-5H-chromeno[3,4-f]quinoline] | 1 to 2 |  |
| C=CCC(O)c1ccsc1C=C1Oc2ccc(O)c(OC)c2-c2ccc3c(c21)C(C)=CC(C)(C)N3 (single isomer, unassigned; (+)) [Compound 200, (+)-(Z)-5-(2′-(3′-(1″-Hydroxybut-3″-enyl)thienylmethylidene))1,2-dihydro-9-hydroxy-10-methoxy-2,2,4-trimethyl-5H-chromeno[3,4-f]quinoline] | 1 to 2 |  |
| COc1c(O)ccc2c1-c1ccc3c(c1/C(=C/c1cc(F)ccc1C)O2)C(C)=CC(C)(C)N3 [Compound 37, (Z)-5-(5′-fluoro-2′-methylbenzylidene)-1,2-dihydro-9-hydroxy-10-methoxy-2,2,4-trimethyl-5H-chromeno[3,4-f]quinoline] | < 1 |  |
| COc1c(O)ccc2c1-c1ccc3c(c1/C(=C/c1sccc1C(C)O)O2)C(C)=CC(C)(C)N3 (racemic) [Compound 171, (±)-(Z)-5-(2′-(3′-(1″-Hydroxyethyl)thienylmethylidene))1,2-dihydro-9-hydroxy-10-methoxy-2,2,4-trimethyl-5H-chromeno[3,4-f]quinoline] | 1 to 2 |  |
| COc1c(O)ccc2c1-c1ccc3c(c1/C(=C/c1ccc(F)cc1S(=O)(=O)N(C)C)O2)C(C)=CC(C)(C)N3 [Compound 103, (Z)-5-(2′-dimethylaminosulphonyl-4′-fluorobenzylidene)-1,2-dihydro-9-hydroxy-10-methoxy-2,2,4-trimethyl-5H-chromeno[3,4-f]quinoline] | 1 to 2 |  |
| COc1c(O)ccc2c1-c1ccc3c(c1/C(=C/c1sccc1CNC1CC1)O2)C(C)=CC(C)(C)N3 [Compound 222, (Z)-5-(2′-(3′-(Cyclopropylaminomethyl)thienylmethylidene))1,2-dihydro-9-hydroxy-10-methoxy-2,2,4-trimethyl-5H-chromeno[3,4-f]quinoline] | 2 to 3 |  |

— patent US20090105292A9, “Glucocorticoid Receptor Modulator Compounds and Methods” (LIGAND PHARMACEUTICALS INCORPORATED, priority 2004, published 2009)
